According to patent US11160797B2, “Pyridinone derivatives and their use as selective ALK-2 inhibitors” (NOVARTIS AG, priority 2017, dated 2021):
Values belong to the molecule of their own block, whether it stands above or below them.

How the values were obtained:
[1] = target: T1, wild-type ALK2 (aa172-499) (Homo sapiens (Human), UniProt Q04771); test: ADPGlo biochemical autophosphorylation assay, ALK2; conditions: 15 uM ATP
ALK3 (aa198-525) = ALK3 (aa198-525) (Homo sapiens (Human), UniProt P36894); test: ADPGlo biochemical autophosphorylation assay, ALK3; conditions: 15 uM ATP
[2] = target: T1, wild-type ALK2 (aa172-499); test: Caliper biochemical peptide phosphorylation assay, ALK2; conditions: Caliper peptide phosphorylation, 15 uM ATP; read-out: ALK2 IC50
[3] = target: ALK2 FOP mutant (aa172-499 R206H) (Homo sapiens (Human), UniProt Q04771, R206H); test: Caliper biochemical peptide phosphorylation assay, ALK2 FOP; conditions: Caliper peptide phosphorylation, R206H, 15 uM ATP; read-out: ALK2 FOP EPK IC50
ALK1 (aa166-493) = ALK1 (aa166-493) (Homo sapiens (Human), UniProt P37023); test: Caliper biochemical peptide phosphorylation assay, ALK1; conditions: 15 uM ATP
ALK5 (aa162-503) = ALK5 (aa162-503) (Homo sapiens (Human), UniProt P36897); test: Caliper biochemical peptide phosphorylation assay, ALK5; conditions: 15 uM ATP
From the text: For all biochemical assays, human recombinant proteins were expressed in and purified from baculo virus transfected insect cells. The constructs comprised the GS-domain and kinase domain of wild-type ALK2 (aa172-499), ALK2 FOP mutant (aa172-499 R206H), ALK3 (aa198-525), ALK5 (aa162-503) and ALK6 (aa168-495).
A kinase selectivity panel which measures substrate peptide phosphorylation was set-up for wild-type ALK2 (aa172-499), ALK2 FOP mutant (aa172-499 R206H), ALK1 (aa166-493), ALK5 (aa162-503) and ALK6 (aa168-495). The technology used for the described assay is based on the separation and quantification of substrate and product in an electrical field. In the course of the kinase reaction the peptide substrate is phosphorylated by a kinase. […] Due to this difference in charge the phosphorylated und unphosphorylated peptides migrate with different velocities in an electrical field.
In the applied method, this separation takes place inside a chip that contains a complex capillary system for simultaneous analysis of 12 samples (“LabChip EZ Reader 12-sipper chip”, Caliper Technologies Corp., Mountain View, USA). In order to allow the detection and quantification of the peptides in the capillary system, the peptides carry a fluorescent label (fluorescein). With this label the peptides can be quantified by fluorescence intensity through the instruments laser and detection system (LC3000, Caliper Life Sciences).
The assays were performed in 384-well, low volume microtiter assay plates in a final reaction volume of 9 ul. Dose-response curves were generated by incubating 10 nM of each kinase together with 2 uM of the fluorescently labeled substrate peptide 5-Fluo-Ahx-[…]-T-[…]-amid (10 mM stock solution in DMSO) in 50 mM Hepes pH 7.5, 0.02% Tween 20, 0.02% BSA, 1 mM DTT, 10 uM Na3VO4, 10 mM ß-Glycerolphosphate, 1 mM MgCl2, 12 mM MnCl2 (ALK1 and ALK6 7 mM) and 15 uM ATP for 60 min at 30° C. in the presence or absence of compound diluted in DMSO.
Kinase reactions were terminated by adding 15 ul STOP buffer (100 mM HEPES pH 7.5, 5% DMSO, 0.1% Caliper coating reagent, 10 mM EDTA, and 0.015% Brij35.
Plates with terminated kinase reactions were transferred to the Caliper LC3000 workstation (Caliper Technologies Corp., Mountain View, USA) for reading. The relative amount of phosphorylated peptide r, was calculated using the heights of the substrate peak, s, and the product peak, p:r=p/(p+s).
IC50 values for a given antagonist correspond to the compound concentration needed to inhibit half of the maximum signal of the kinase reaction.

ALK6 (aa168-495) = ALK6 (aa168-495) (Homo sapiens (Human), UniProt O00238); test: Caliper biochemical peptide phosphorylation assay, ALK6; conditions: 15 uM ATP
[4] = system: HuH7 cells, BMP response element (BRE) luciferase reporter, BMP6 stimulated; test: BMP signaling reporter gene assay; format: cell-based; conditions: Homo sapiens, Huh-7; BMP6 100 ng/ml; read-out: MSD HuH7 cell BMP reporter IC50

Sequence of ALK2 FOP mutant (aa172-499 R206H) (Q04771 172-499 R206H): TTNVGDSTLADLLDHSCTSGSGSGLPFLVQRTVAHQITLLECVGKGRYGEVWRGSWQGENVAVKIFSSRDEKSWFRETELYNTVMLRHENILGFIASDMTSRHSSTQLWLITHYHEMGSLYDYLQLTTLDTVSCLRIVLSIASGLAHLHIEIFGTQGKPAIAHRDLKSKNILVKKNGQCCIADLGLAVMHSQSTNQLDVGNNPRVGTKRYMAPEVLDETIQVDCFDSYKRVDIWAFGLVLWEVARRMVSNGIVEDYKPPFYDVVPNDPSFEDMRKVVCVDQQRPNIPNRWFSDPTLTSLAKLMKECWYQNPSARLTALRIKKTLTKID
T1 sequence (Q04771 172-499): as the sequence (Q04771 172-499 R206H) above, with H35R counted along it
Sequence of ALK6 (aa168-495) (O00238 168-495): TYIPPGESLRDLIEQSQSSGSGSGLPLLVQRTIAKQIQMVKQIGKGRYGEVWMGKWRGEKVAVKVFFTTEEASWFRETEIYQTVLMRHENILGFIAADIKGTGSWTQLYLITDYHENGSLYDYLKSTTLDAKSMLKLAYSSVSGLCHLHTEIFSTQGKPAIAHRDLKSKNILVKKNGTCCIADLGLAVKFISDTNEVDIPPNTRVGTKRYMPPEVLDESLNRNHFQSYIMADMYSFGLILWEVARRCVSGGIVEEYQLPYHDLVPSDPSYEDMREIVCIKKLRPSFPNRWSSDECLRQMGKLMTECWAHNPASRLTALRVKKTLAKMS
Sequence of ALK1 (aa166-493) (P37023 166-493): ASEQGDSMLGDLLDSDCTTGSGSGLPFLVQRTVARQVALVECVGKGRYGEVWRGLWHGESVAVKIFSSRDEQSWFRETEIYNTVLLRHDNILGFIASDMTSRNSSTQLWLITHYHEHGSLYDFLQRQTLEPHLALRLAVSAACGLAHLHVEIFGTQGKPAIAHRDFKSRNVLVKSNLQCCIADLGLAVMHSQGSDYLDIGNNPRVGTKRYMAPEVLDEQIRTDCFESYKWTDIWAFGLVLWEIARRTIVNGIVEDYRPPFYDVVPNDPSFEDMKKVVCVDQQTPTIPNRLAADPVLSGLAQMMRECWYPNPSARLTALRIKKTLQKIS
Sequence of ALK5 (aa162-503) (P36897 162-503): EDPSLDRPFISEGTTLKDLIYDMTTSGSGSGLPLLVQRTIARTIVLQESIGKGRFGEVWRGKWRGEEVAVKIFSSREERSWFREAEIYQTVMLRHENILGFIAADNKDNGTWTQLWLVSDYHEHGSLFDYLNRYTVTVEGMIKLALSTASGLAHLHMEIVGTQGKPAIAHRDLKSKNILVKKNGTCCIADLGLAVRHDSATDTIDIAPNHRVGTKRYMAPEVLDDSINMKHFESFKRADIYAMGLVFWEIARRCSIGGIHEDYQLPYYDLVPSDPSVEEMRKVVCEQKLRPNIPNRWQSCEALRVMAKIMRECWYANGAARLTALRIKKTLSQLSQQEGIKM
Sequence of ALK3 (aa198-525) (P36894 198-525): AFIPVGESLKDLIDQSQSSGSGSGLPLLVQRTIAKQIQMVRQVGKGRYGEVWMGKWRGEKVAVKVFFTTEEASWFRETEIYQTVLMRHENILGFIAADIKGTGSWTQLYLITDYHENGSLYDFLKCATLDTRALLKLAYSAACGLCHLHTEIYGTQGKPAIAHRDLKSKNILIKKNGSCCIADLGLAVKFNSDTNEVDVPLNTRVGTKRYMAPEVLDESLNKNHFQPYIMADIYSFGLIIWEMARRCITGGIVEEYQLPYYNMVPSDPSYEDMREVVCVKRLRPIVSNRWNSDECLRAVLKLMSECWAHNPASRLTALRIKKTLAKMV

SMILES: COc1cc(-c2cncc(-c3ccc4c(c3)CC(=O)N4C)c2)cn(C(C)C)c1=O [Example 2, 5-(1′-Isopropyl-5′-methoxy-6′-oxo-1′,6′-dihydro-[3,3′-bipyridin]-5-yl)-1-methylindolin-2-one]
- IC50 [1]: 87 nM
- IC50 (ALK3 (aa198-525)): 520 nM
- IC50 [2]: 80 nM
- IC50 [3]: 60 nM
- IC50 (ALK1 (aa166-493)): 410 nM
- IC50 (ALK5 (aa162-503)): 610 nM
- IC50 (ALK6 (aa168-495)): 940 nM
- IC50 [4]: 50 nM

SMILES: CN1C(=O)Cc2cc(-c3cncc(-c4ccc(=O)n(CC(F)(F)F)c4)c3)ccc21 [Example 12, 1-methyl-5-(6′-oxo-1′-(2,2,2-trifluoroethyl)-1′,6′-dihydro-[3,3′-bipyridin]-5-yl)indolin-2-one]
- IC50 [1]: 1500 nM
- IC50 (ALK3 (aa198-525)): > 15100 nM
- IC50 [2]: 800 nM
- IC50 [3]: 810 nM
- IC50 (ALK1 (aa166-493)): 6800 nM
- IC50 (ALK5 (aa162-503)): > 10000 nM
- IC50 (ALK6 (aa168-495)): 7000 nM
- IC50 [4]: 800 nM

SMILES: CCC(CC)Cn1cc(-c2cncc(-c3ccc4c(c3)CC(=O)N4C)c2)ccc1=O [Example 13, 5-(1′-(2-ethylbutyl)-6′-oxo-1′,6′-dihydro-[3,3′-bipyridin]-5-yl)-1-methylindolin-2-one]
- IC50 [1]: 680 nM
- IC50 (ALK3 (aa198-525)): 8500 nM
- IC50 [2]: 620 nM
- IC50 [3]: 570 nM
- IC50 (ALK1 (aa166-493)): 5300 nM
- IC50 (ALK5 (aa162-503)): > 10000 nM
- IC50 (ALK6 (aa168-495)): > 10000 nM
- IC50 [4]: 790 nM

SMILES: CCN1c2ccc(-c3cncc(-c4ccc(=O)n(C(C)C)c4)c3)cc2CS1(=O)=O [Example 49, 5′-(1-ethyl-2,2-dioxido-1,3-dihydrobenzo[c]isothiazol-5-yl)-1-isopropyl-[3,3′-bipyridin]-6(1H)-one]
- IC50 [1]: 130 nM
- IC50 (ALK3 (aa198-525)): 670 nM
- IC50 [2]: 140 nM
- IC50 [3]: 130 nM
- IC50 (ALK1 (aa166-493)): 570 nM
- IC50 (ALK5 (aa162-503)): 2900 nM
- IC50 (ALK6 (aa168-495)): 1100 nM

SMILES: CC(C)n1cc(-c2cncc(-c3ccc4c(c3)CS(=O)(=O)N4CC3CCC3)c2)ccc1=O [Example 51, 5′-(1-(cyclobutylmethyl)-2,2-dioxido-1,3-dihydrobenzo[c]isothiazol-5-yl)-1-isopropyl-[3,3′-bipyridin]-6(1H)-one]
- IC50 [1]: 160 nM
- IC50 (ALK3 (aa198-525)): 880 nM
- IC50 [2]: 160 nM
- IC50 [3]: 150 nM
- IC50 (ALK1 (aa166-493)): 780 nM
- IC50 (ALK5 (aa162-503)): 2700 nM
- IC50 (ALK6 (aa168-495)): 1500 nM

Next, values leading:

- IC50 [1]: 230 nM
- IC50 (ALK3 (aa198-525)): 3600 nM
- IC50 [2]: 150 nM
- IC50 [3]: 180 nM
- IC50 (ALK1 (aa166-493)): 1700 nM
- IC50 (ALK5 (aa162-503)): 5300 nM
- IC50 (ALK6 (aa168-495)): 2900 nM
- IC50 [4]: 660 nM
SMILES: CN1C(=O)Cc2cc(-c3cncc(-c4ccc(=O)n(C5CCC5)c4)c3)ccc21 [Example 6, 5-(1′-Cyclobutyl-6′-oxo-1′,6′-dihydro-[3,3′-bipyridin]-5-yl)-1-methylindolin-2-one]

- IC50 [1]: 200 nM
- IC50 (ALK3 (aa198-525)): 2400 nM
- IC50 [2]: 170 nM
- IC50 [3]: 120 nM
- IC50 (ALK1 (aa166-493)): 1500 nM
- IC50 (ALK5 (aa162-503)): 9600 nM
- IC50 (ALK6 (aa168-495)): 5300 nM
- IC50 [4]: 150 nM
SMILES: CN1C(=O)Cc2cc(-c3cncc(-c4ccc(=O)n(C5CCCC5)c4)c3)ccc21 [Example 8, 5-(1′-cyclopentyl-6′-oxo-1′,6′-dihydro-[3,3′-bipyridin]-5-yl)-1-methylindolin-2-one]

- IC50 [1]: 600 nM
- IC50 (ALK3 (aa198-525)): 7900 nM
- IC50 [2]: 490 nM
- IC50 [3]: 470 nM
- IC50 (ALK1 (aa166-493)): 4700 nM
- IC50 (ALK5 (aa162-503)): > 10000 nM
- IC50 (ALK6 (aa168-495)): > 10000 nM
- IC50 [4]: 640 nM
SMILES: CN1C(=O)Cc2cc(-c3cncc(-c4ccc(=O)n(CC5CCC5)c4)c3)ccc21 [Example 11, 5-(1′-(cyclobutylmethyl)-6′-oxo-1′,6′-dihydro-[3,3′-bipyridin]-5-yl)-1-methylindolin-2-one]

- IC50 [1]: 880 nM
- IC50 (ALK3 (aa198-525)): 9900 nM
- IC50 [2]: 760 nM
- IC50 [3]: 740 nM
- IC50 (ALK1 (aa166-493)): 5100 nM
- IC50 (ALK5 (aa162-503)): > 10000 nM
- IC50 (ALK6 (aa168-495)): > 10000 nM
- IC50 [4]: 1500 nM
SMILES: COCn1cc(-c2cncc(-c3ccc4c(c3)CC(=O)N4C)c2)ccc1=O [Example 15, 5-(1′-(methoxymethyl)-6′-oxo-1′,6′-dihydro-[3,3′-bipyridin]-5-yl)-1-methylindolin-2-one]
